Source: patent US11319315B2, “Cyclohexyl acid triazole azoles as LPA antagonists” (BRISTOL-MYERS SQUIBB COMPANY, priority 2017, dated 2022)

biological target: T1, human LPA1 (Homo sapiens, UniProt Q92633); assay: LPA1 functional antagonist assay (LPA-induced calcium flux in CHO cells overexpressing human LPA1); assay type: cell-based; details: inhibition of calcium flux induced by 10 nM LPA, CHO cells overexpressing human LPA1; read-out: hLPA1 IC50
T1 construct: expressed in transfected cells; host or cells: Chinese hamster ovary (CHO) cells
T1 sequence (Q92633 whole entry): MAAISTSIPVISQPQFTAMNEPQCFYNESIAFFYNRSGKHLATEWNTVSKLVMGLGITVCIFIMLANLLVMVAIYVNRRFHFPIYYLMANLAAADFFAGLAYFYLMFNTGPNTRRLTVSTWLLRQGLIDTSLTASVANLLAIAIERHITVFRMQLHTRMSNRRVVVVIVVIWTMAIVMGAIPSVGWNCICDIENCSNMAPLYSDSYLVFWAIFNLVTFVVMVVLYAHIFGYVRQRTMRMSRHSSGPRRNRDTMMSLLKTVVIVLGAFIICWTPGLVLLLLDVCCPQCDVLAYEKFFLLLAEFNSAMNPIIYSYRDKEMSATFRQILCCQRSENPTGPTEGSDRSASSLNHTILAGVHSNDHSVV
In short: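 CHO cells overexpressing human LPA1, dye-loaded 30 min at 37 °C, then given compound (0.08 nM–5 μM final, 0.5% DMSO) in HBSS/20 mM HEPES/0.1% fatty-acid-free BSA for 20 min at room temperature before 10 nM LPA. IC50 as 50% inhibition of LPA-evoked calcium flux, 4-parameter logistic fit.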

IC50 | SMILES
243 nM | CCCOCc1nnnn1Cc1c(-c2ccc(O[C@H]3CCC[C@H](C(=O)O)C3)c(C)n2)nnn1C [Example 305, (1S,3S)-3-{[2-methyl-6-(1-methyl-5-{[5-(propoxymethyl)-1H-1,2,3,4-tetrazol-1-yl]methyl}-1H-1,2,3-triazol-4-yl)pyridin-3-yl]oxy}cyclohexane-1-carboxylic acid]
205 nM | CCc1nc(-c2nnn(C)c2Cn2nnnc2CC2CC2)ccc1O[C@H]1CCC[C@H](C(=O)O)C1 [Example 306, (1S,3S)-3-{[6-(5-{[5-(cyclopropyl-methyl)-1H-1,2,3,4-tetrazol-1-yl]methyl}-1-methyl-1H-1,2,3-triazol-4-yl)-2-ethylpyridin-3-yl]oxy}cyclohexane-1-carboxylic acid]
32 nM | CCc1nc(-c2nnn(C)c2Cn2nnc(CC3CC3)n2)ccc1O[C@H]1CCC[C@H](C(=O)O)C1 [Example 307, (1S,3S)-3-{[6-(5-{[5-(cyclopropyl-methyl)-2H-1,2,3,4-tetrazol-2-yl]methyl}-1-methyl-1H-1,2,3-triazol-4-yl)-2-ethylpyridin-3-yl]oxy}cyclohexane-1-carboxylic acid]
714 nM | Cc1nc(-c2nnn(C)c2Cn2nnc(C3CCOCC3)n2)ccc1O[C@H]1CCC[C@H](C(=O)O)C1 [Example 308, (1S,3S)-3-{[2-methyl-6-(1-methyl-5-{[5-(oxan-4-yl)-2H-1,2,3,4-tetrazol-2-yl]methyl}-1H-1,2,3-triazol-4-yl)pyridin-3-yl]oxy}cyclohexane-1-carboxylic acid]
191 nM | Cc1nc(-c2nnn(C)c2Cn2nnnc2CCC(C)C)ccc1O[C@H]1CCC[C@H](C(=O)O)C1 [Example 309, (1S,3S)-3-{[2-methyl-6-(1-methyl-5-{[5-(3-methylbutyl)-1H-1,2,3,4-tetrazol-1-yl]methyl}-1H-1,2,3-triazol-4-yl)pyridin-3-yl]oxy}cyclohexane-1-carboxylic acid]
24 nM | Cc1nc(-c2nnn(C)c2Cn2nnc(CCC(C)C)n2)ccc1O[C@H]1CCC[C@H](C(=O)O)C1 [Example 310, (1S,3S)-3-{[2-methyl-6-(1-methyl-5-{[5-(3-methylbutyl)-2H-1,2,3,4-tetrazol-2-yl]methyl}-1H-1,2,3-triazol-4-yl)pyridin-3-yl]oxy}cyclohexane-1-carboxylic acid]
605 nM | Cc1nc(-c2nnn(C)c2Cn2nnnc2N2CCCC2)ccc1O[C@H]1CCC[C@H](C(=O)O)C1 [Example 311, (1S,3S)-3-{[2-methyl-6-(1-methyl-5-{[5-(pyrrolidin-1-yl)-1H-1,2,3,4-tetrazol-1-yl]methyl}-1H-1,2,3-triazol-4-yl)pyridin-3-yl]oxy}cyclohexane-1-carboxylic acid]
234 nM | Cc1nc(-c2nnn(C)c2Cn2nnc(N3CCCC3)n2)ccc1O[C@H]1CCC[C@H](C(=O)O)C1 [Example 312, (1S,3S)-3-{[2-methyl-6-(1-methyl-5-{[5-(pyrrolidin-1-yl)-2H-1,2,3,4-tetrazol-2-yl]methyl}-1H-1,2,3-triazol-4-yl)pyridin-3-yl]oxy}cyclohexane-1-carboxylic acid]
277 nM | COc1cccc(Cc2nnnn2Cc2c(-c3ccc(O[C@H]4CCC[C@H](C(=O)O)C4)c(C)n3)nnn2C)c1 [Example 313, (1S,3S)-3-({6-[5-({5-[(3-methoxy-phenyl)methyl]-1H-1,2,3,4-tetrazol-1-yl}methyl)-1-methyl-1H-1,2,3-triazol-4-yl]-2-methylpyridin-3-yl}oxy)cyclohexane-1-carboxylic acid]
12 nM | COc1cccc(Cc2nnn(Cc3c(-c4ccc(O[C@H]5CCC[C@H](C(=O)O)C5)c(C)n4)nnn3C)n2)c1 [Example 314, (1S,3S)-3-({6-[5-({5-[(3-methoxy-phenyl)methyl]-2H-1,2,3,4-tetrazol-2-yl}methyl)-1-methyl-1H-1,2,3-triazol-4-yl]-2-methylpyridin-3-yl}oxy)cyclohexane-1-carboxylic acid]
154 nM | Cc1nc(-c2nnn(C)c2Cn2nnnc2CC2CCCC2)ccc1O[C@H]1CCC[C@H](C(=O)O)C1 [Example 315, (1S,3S)-3-{[6-(5-{[5-(cyclopentyl-methyl)-1H-1,2,3,4-tetrazol-1-yl]methyl}-1-methyl-1H-1,2,3-triazol-4-yl)-2-methylpyridin-3-yl]oxy}cyclohexane-1-carboxylic acid]
22 nM | Cc1nc(-c2nnn(C)c2Cn2nnc(OCCC3CC3)n2)ccc1O[C@H]1CCC[C@H](C(=O)O)C1 [Example 316, (1 S,3S)-3-((6-(5-((5-(2-cyclopropylethoxy)-2H-tetrazol-2-yl)methyl)-1-methyl-1H-1,2,3-triazol-4-yl)-2-methylpyridin-3-yl)oxy)cyclohexane-1-carboxylic acid]
63 nM | Cc1nc(-c2nnn(C)c2Cn2ccc(Cc3ccccc3)n2)ccc1O[C@H]1CCC[C@H](C(=O)O)C1 [Example 317, (1S,3S)-3-((6-(5-((3-benzyl-1H-pyrazol-1-yl)methyl)-1-methyl-1H-1,2,3-triazol-4-yl)-2-methylpyridin-3-yl)oxy)cyclo-hexane-1-carboxylic acid]
414 nM | CCc1nnn(Cc2c(-c3ccc(O[C@H]4CCC[C@H](C(=O)O)C4)c(C)n3)nnn2C)n1 [Example 318, (1S,3S)-3-((6-(5-((5-ethyl-2H-tetrazol-2-yl)methyl)-1-methyl-1H-1,2,3-triazol-4-yl)-2-methylpyridin-3-yl)oxy)cyclo-hexane-1-carboxylic acid]
673 nM | Cc1nc(-c2nnn(C)c2Cn2nnnc2C2CC2)ccc1O[C@H]1CCC[C@H](C(=O)O)C1 [Example 319, (1S,3S)-3-((6-(5-((5-cyclopropyl-1H-tetrazol-1-yl)methyl)-1-methyl-1H-1,2,3-triazol-4-yl)-2-methylpyridin-3-yl)oxy)cyclo-hexane-1-carboxylic acid]
58 nM | Cc1nc(-c2nnn(C)c2Cn2nnc(-c3cccc(F)c3)n2)ccc1O[C@H]1CCC[C@H](C(=O)O)C1 [Example 320, (1S,3S)-3-((6-(5-((5-(3-fluoro-phenyl)-2H-tetrazol-2-yl)methyl)-1-methyl-1H-1,2,3-triazol-4-yl)-2-methylpyridin-3-yl)oxy)cyclo-hexane-1-carboxylic acid]
428 nM | Cc1nc(-c2nnn(C)c2Cn2nnnc2-c2cccc(F)c2)ccc1O[C@H]1CCC[C@H](C(=O)O)C1 [Example 321, (1S,3S)-3-((6-(5-((5-(3-fluoro-phenyl)-1H-tetrazol-1-yl)methyl)-1-methyl-1H-1,2,3-triazol-4-yl)-2-methylpyridin-3-yl)oxy)cyclo-hexane-1-carboxylic acid]
243 nM | Cc1nc(-c2nnn(C)c2Cn2nnc(-c3ccc(F)cc3)n2)ccc1O[C@H]1CCC[C@H](C(=O)O)C1 [Example 322, (1S,3S)-3-((6-(5-((5-(4-fluoro-phenyl)-2H-tetrazol-2-yl)methyl)-1-methyl-1H-1,2,3-triazol-4-yl)-2-methylpyridin-3-yl)oxy)cyclo-hexane-1-carboxylic acid]
414 nM | Cc1nc(-c2nnn(C)c2Cn2nnnc2-c2ccc(F)cc2)ccc1O[C@H]1CCC[C@H](C(=O)O)C1 [Example 323, (1S,3S)-3-((6-(5-((5-(4-fluoro-phenyl)-1H-tetrazol-1-yl)methyl)-1-methyl-1H-1,2,3-triazol-4-yl)-2-methylpyridin-3-yl)oxy)cyclo-hexane-1-carboxylic acid]
38 nM | Cc1nc(-c2nnn(C)c2Cn2nnc(Cc3ccc(Cl)cc3)n2)ccc1O[C@H]1CCC[C@H](C(=O)O)C1 [Example 324, (1S,3S)-3-((6-(5-((5-(4-chloro-benzyl)-2H-tetrazol-2-yl)methyl)-1-methyl-1H-1,2,3-triazol-4-yl)-2-methylpyridin-3-yl)oxy)cyclo-hexane-1-carboxylic acid]
167 nM | Cc1nc(-c2nnn(C)c2Cn2nnnc2Cc2ccc(Cl)cc2)ccc1O[C@H]1CCC[C@H](C(=O)O)C1 [Example 325, (1S,3S)-3-((6-(5-((5-(4-chloro-benzyl)-1H-tetrazol-1-yl)methyl)-1-methyl-1H-1,2,3-triazol-4-yl)-2-methylpyridin-3-yl)oxy)cyclo-hexane-1-carboxylic acid]
23 nM | Cc1ccc(Oc2nnn(Cc3c(-c4ccc(O[C@H]5CCC[C@H](C(=O)O)C5)c(C)n4)nnn3C)n2)cc1 [Example 326, (1S,3S)-3-((2-methyl-6-(1-methyl-5-((5-(p-tolyloxy)-2H-tetrazol-2-yl)methyl)-1H-1,2,3-triazol-4-yl)pyridin-3-yl)oxy)cyclohexane-1-carboxylic acid]
28 nM | Cc1nc(-c2nnn(C)c2Cn2nnc(CC(C)C)n2)ccc1O[C@H]1CCC[C@H](C(=O)O)C1 [Example 327, (1S,3S)-3-((6-(5-((5-isobutyl-2H-tetrazol-2-yl)methyl)-1-methyl-1H-1,2,3-triazol-4-yl)-2-methylpyridin-3-yl)oxy)cyclohexane-1-carboxylic acid]
118 nM | Cc1nc(-c2nnn(C)c2Cn2nnnc2CC(C)C)ccc1O[C@H]1CCC[C@H](C(=O)O)C1 [Example 328, (1S,3S)-3-((6-(5-((5-isobutyl-1H-tetrazol-1-yl)methyl)-1-methyl-1H-1,2,3-triazol-4-yl)-2-methylpyridin-3-yl)oxy)cyclohexane-1-carboxylic acid]
14 nM | Cc1nc(-c2nnn(C)c2Cn2nnc(C3CCCC3)n2)ccc1O[C@H]1CCC[C@H](C(=O)O)C1 [Example 329, (1S,3S)-3-((6-(5-((5-cyclopentyl-2H-tetrazol-2-yl)methyl)-1-methyl-1H-1,2,3-triazol-4-yl)-2-methylpyridin-3-yl)oxy)cyclo-hexane-1-carboxylic acid]
385 nM | Cc1nc(-c2nnn(C)c2Cn2nnnc2C2CCCC2)ccc1O[C@H]1CCC[C@H](C(=O)O)C1 [Example 330, (1S,3S)-3-((6-(5-((5-cyclopentyl-1H-tetrazol-1-yl)methyl)-1-methyl-1H-1,2,3-triazol-4-yl)-2-methylpyridin-3-yl)oxy)cyclo-hexane-1-carboxylic acid]
